Tests used:
[1] = biological target: T1, Choline O-acetyltransferase (Rattus norvegicus) (UniProt P32738); experiment: Increase in choline acetyltransferase activity in rat brain neurons at […] after 10 days relative to control; format: tissue-based
T1 sequence (whole entry): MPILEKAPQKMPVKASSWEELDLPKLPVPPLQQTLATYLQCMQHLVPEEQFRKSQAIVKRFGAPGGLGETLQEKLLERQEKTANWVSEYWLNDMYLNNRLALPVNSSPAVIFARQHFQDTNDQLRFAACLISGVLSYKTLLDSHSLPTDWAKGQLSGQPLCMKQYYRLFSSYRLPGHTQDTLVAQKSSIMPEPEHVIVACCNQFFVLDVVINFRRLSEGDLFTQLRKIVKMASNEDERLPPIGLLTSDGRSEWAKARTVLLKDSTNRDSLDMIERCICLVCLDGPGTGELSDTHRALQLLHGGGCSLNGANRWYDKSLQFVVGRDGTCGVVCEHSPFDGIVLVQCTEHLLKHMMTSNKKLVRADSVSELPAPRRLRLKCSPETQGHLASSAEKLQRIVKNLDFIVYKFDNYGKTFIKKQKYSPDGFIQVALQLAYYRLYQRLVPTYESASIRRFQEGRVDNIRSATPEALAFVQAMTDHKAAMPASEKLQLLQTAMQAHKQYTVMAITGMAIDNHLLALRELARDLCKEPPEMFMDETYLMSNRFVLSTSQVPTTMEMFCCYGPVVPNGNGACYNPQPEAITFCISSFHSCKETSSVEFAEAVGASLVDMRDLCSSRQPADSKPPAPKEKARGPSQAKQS

[2] = Neurotrophic activity in isolated embryonic mouse brain Hippocampal neurons assessed as induction of neurite outgrowth at 0.01 uM after 48 hrs relative to control; format: functional, Hippocampal neuron
[3] = Neurotrophic activity in isolated embryonic mouse brain Hippocampal neurons assessed as induction of neurite outgrowth at 0.1 uM after 48 hrs relative to control; format: functional, Hippocampal neuron
[4] = Neurotrophic activity in isolated embryonic mouse brain Hippocampal neurons assessed as induction of neurite outgrowth at 1 uM after 48 hrs relative to control; format: functional, Hippocampal neuron
Hippocampal neuron = experiment: Neurotrophic activity in isolated embryonic mouse brain Hippocampal neurons assessed as induction of neurite outgrowth after 48 hrs relative to control; format: functional
Cortical neurone [5] = experiment: Neurotrophic activity in isolated embryonic mouse embryonic Cortical neurons assessed as induction of neurite outgrowth at 0.01 uM after 48 hrs relative to control; format: functional
Cortical neurone [6] = experiment: Neurotrophic activity in isolated embryonic mouse embryonic Cortical neurons assessed as induction of neurite outgrowth at 0.1 uM after 48 hrs relative to control; format: functional
Cortical neurone [7] = experiment: Neurotrophic activity in isolated embryonic mouse embryonic Cortical neurons assessed as induction of neurite outgrowth at 1 uM after 48 hrs relative to control; format: functional
Cortical neurone [8] = experiment: Neurotrophic activity in isolated embryonic mouse embryonic Cortical neurons assessed as induction of neurite outgrowth after 48 hrs relative to control; format: functional

Row | Structure (SMILES) | Activity [1] [%] | Activity [2] [%] | Activity [3] [%] | Activity [4] [%] | Activity (Hippocampal neuron) | Activity (Cortical neurone [5]) [%] | Activity (Cortical neurone [6]) [%] | Activity (Cortical neurone [7]) [%] | Activity (Cortical neurone [8])
1 | C=CCc1ccc(O)c(-c2cc(CC=C)ccc2O[C@H]2CC(C)(C)[C@@H]3CC[C@]4(C)C[C@]23CC[C@H]4O)c1 [CLOVANEMAGNOLOL] | 142 | 62.8 | 26.5 | -83.9 | Dose-dependent effect | 44.2 | 22.7 | -80.7 | Dose-dependent effect
2 | C=CCc1ccc(O)c(-c2cc(CC=C)ccc2O)c1 [MAGNOLOL] | – | 50.1 | 23.9 | -69 | Dose-dependent effect | 20.2 | 55.6 | -74.6 | Dose-dependent effect

— ChEMBL document CHEMBL1817590, “Hippocampal and cortical neuronal growth mediated by the small molecule natural product clovanemagnolol” (2011)
